Assays:
Parameters in all cases: scale not given here
[1] = tested on: GLXMAW Soybean, Williams; assay: Postemergence herbicidal evaluation, GLXMAW; format: in vivo, Glycine max, (L.) Merr. cv Williams; settings: postemergence spray, rated about two-three weeks after treatment
Outline: (§1)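 Seedlings grown about two weeks were sprayed with compound in 80/20 acetone/water containing 1.0% methylated seed oil, at the equivalent of about 0.006 to 0.400 kg/ha, through a nozzle at 40 psi. Plants were kept in the greenhouse and rated visually about two to three weeks after treatment.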

[2] = tested on: AMBEL Ragweed, Common; assay: Preemergence herbicidal evaluation, AMBEL; format: in vivo, Ambrosia artemisifolia, L.; settings: preemergence
Outline: (§2)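 Seeds mixed with potting soil were planted on about one inch of soil in cups, then sprayed with the test compound in aqueous acetone at roughly 0.013 to 0.800 kg per hectare. Plants were kept under standard greenhouse care and injury was rated four to five weeks after treatment.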

[3] = tested on: ABUTH Velvetleaf; assay: Preemergence herbicidal evaluation, ABUTH; format: in vivo, Abutilon theophrasti, Medic.; settings: preemergence
Outline: as §2

[4] = tested on: IPOHE Morningglory, Ivyleaf; assay: Preemergence herbicidal evaluation, IPOHE; format: in vivo, Ipomoea hederacea, (L.) Jacq.; settings: preemergence
Outline: as §2

[5] = tested on: ZEAMX Corn, Field; assay: Postemergence herbicidal evaluation, ZEAMX; format: in vivo, Zea mays, L. (Sammel-Bezeichnung); settings: postemergence spray, rated about two-three weeks after treatment
Outline: as §1

[6] = tested on: ORYSAT Rice, Tebonnet; assay: Preemergence herbicidal evaluation, ORYSAT; format: in vivo, Oryza sativa, (L.); settings: preemergence
Outline: as §2

[7] = tested on: IPOHE Morningglory, Ivyleaf; assay: Postemergence herbicidal evaluation, IPOHE; format: in vivo, Ipomoea hederacea, (L.) Jacq.; settings: postemergence spray, rated about two-three weeks after treatment
Outline: as §1

[8] = tested on: AMBEL Ragweed, Common; assay: Postemergence herbicidal evaluation, AMBEL; format: in vivo, Ambrosia artemisifolia, L.; settings: postemergence spray, rated about two-three weeks after treatment
Outline: as §1

[9] = tested on: ZEAMX Corn, Field; assay: Preemergence herbicidal evaluation, ZEAMX; format: in vivo, Zea mays, L. (Sammel-Bezeichnung); settings: preemergence
Outline: as §2

[10] = tested on: GLXMAW Soybean, Williams; assay: Preemergence herbicidal evaluation, GLXMAW; format: in vivo, Glycine max, (L.) Merr. cv Williams; settings: preemergence
Outline: as §2

[11] = tested on: GALAP Galium; assay: Preemergence herbicidal evaluation, GALAP; format: in vivo, Galium aparine; settings: preemergence
Outline: as §2

[12] = tested on: ORYSAT Rice, Tebonnet; assay: Postemergence herbicidal evaluation, ORYSAT; format: in vivo, Oryza sativa, (L.); settings: postemergence spray, rated about two-three weeks after treatment
Outline: as §1

Cc1cc(O)ccc1-n1nnc2cc(F)c(-n3c(=O)cc(C(F)(F)F)n(C)c3=O)cc21 [Example 33]
0.5: Postemergence herbicidal rating ORYSAT ([12]; 0.032 kg/ha)
3.0: Postemergence herbicidal rating ZEAMX ([5]; 0.008 kg/ha) | Postemergence herbicidal rating ZEAMX ([5]; 0.016 kg/ha) | Postemergence herbicidal rating IPOHE ([7]; 0.032 kg/ha)
3.5: Postemergence herbicidal rating GLXMAW ([1]; 0.016 kg/ha) | Postemergence herbicidal rating ZEAMX ([5]; 0.032 kg/ha)
5.0: Postemergence herbicidal rating GLXMAW ([1]; 0.062 kg/ha)
1.5: Postemergence herbicidal rating GLXMAW ([1]; 0.008 kg/ha)
0.0: AMBEL herbicidal rating ([2]; rate 0.016 kg/ha) | AMBEL herbicidal rating ([2]; rate 0.032 kg/ha) | AMBEL herbicidal rating ([2]; rate 0.062 kg/ha) | AMBEL herbicidal rating ([2]; rate 0.125 kg/ha) | ABUTH herbicidal rating ([3]; rate 0.016 kg/ha) | ABUTH herbicidal rating ([3]; rate 0.032 kg/ha) | ABUTH herbicidal rating ([3]; rate 0.062 kg/ha) | IPOHE herbicidal rating ([4]; rate 0.016 kg/ha) | IPOHE herbicidal rating ([4]; rate 0.032 kg/ha) | IPOHE herbicidal rating ([4]; rate 0.062 kg/ha) | IPOHE herbicidal rating ([4]; rate 0.125 kg/ha) | ORYSAT herbicidal rating ([6]; rate 0.016 kg/ha) | ORYSAT herbicidal rating ([6]; rate 0.032 kg/ha) | ORYSAT herbicidal rating ([6]; rate 0.062 kg/ha) | ORYSAT herbicidal rating ([6]; rate 0.125 kg/ha) | Postemergence herbicidal rating IPOHE ([7]; 0.008 kg/ha) | Postemergence herbicidal rating AMBEL ([8]; 0.008 kg/ha) | Postemergence herbicidal rating AMBEL ([8]; 0.016 kg/ha) | Postemergence herbicidal rating AMBEL ([8]; 0.032 kg/ha) | Postemergence herbicidal rating AMBEL ([8]; 0.062 kg/ha) | ZEAMX herbicidal rating ([9]; rate 0.016 kg/ha) | ZEAMX herbicidal rating ([9]; rate 0.032 kg/ha) | ZEAMX herbicidal rating ([9]; rate 0.062 kg/ha) | ZEAMX herbicidal rating ([9]; rate 0.125 kg/ha) | GLXMAW herbicidal rating ([10]; rate 0.016 kg/ha) | GLXMAW herbicidal rating ([10]; rate 0.032 kg/ha) | GLXMAW herbicidal rating ([10]; rate 0.062 kg/ha) | GLXMAW herbicidal rating ([10]; rate 0.125 kg/ha) | GALAP herbicidal rating ([11]; rate 0.016 kg/ha) | GALAP herbicidal rating ([11]; rate 0.032 kg/ha) | GALAP herbicidal rating ([11]; rate 0.062 kg/ha) | GALAP herbicidal rating ([11]; rate 0.125 kg/ha) | Postemergence herbicidal rating ORYSAT ([12]; 0.008 kg/ha) | Postemergence herbicidal rating ORYSAT ([12]; 0.016 kg/ha)
2.0: Postemergence herbicidal rating IPOHE ([7]; 0.016 kg/ha) | Postemergence herbicidal rating ORYSAT ([12]; 0.062 kg/ha)
9.0: ABUTH herbicidal rating ([3]; rate 0.125 kg/ha) | Postemergence herbicidal rating IPOHE ([7]; 0.062 kg/ha)
4.0: Postemergence herbicidal rating GLXMAW ([1]; 0.032 kg/ha) | Postemergence herbicidal rating ZEAMX ([5]; 0.062 kg/ha)

From patent US20020111274A1, “1-alkyl-3-[1-(substituted phenyl) benzotriazol-6-yl] uracils” (BASF Aktiengesellschaft, priority 2000, published 2002)
